These results are taken from patent US5235055A, “Antipsychotic quinoline derivatives of benzodioxanmethylamine” (American Home Products Corporation, priority 1992, dated 1993).

The subject of one experiment is 5-HT1A receptor. As to conditions: Fozard et al. 1987, cited from earlier work.
For another experiment, the system named is synthesis of dopamine. The experiment is described as follows: Effect on dopamine synthesis: inhibition of dopa accumulation in GBL/NSD-1015-treated rats (Walters and Roth). The format is in vivo, rats (male, Sprague-Dawley). The settings on record: Rattus norvegicus, sc, read-out: Dopa Accumulation (% inhib. @ 10 mg/kg, sc). The method, then: The effect of the compounds of the invention on the synthesis of dopamine was established by the method of Walters and Roth, Naunyn-Schmiedeberg's Arch. Pharmacol. 296:5-14, 1976, in which rats (male, Sprague-Dawley, Charles River, 200-350 g) were administered vehicle or test drug ten minutes prior to the administration of gamma butyrolactone (GBL; 750 mg/kg, ip to inhibit dopaminergic impulse flow) and 20 minutes prior to NSD-1015 (100 mg/kg, ip to prevent the conversion of dopa to dopamine). Thirty minutes after NSD-1015 all rats were decapitated and the nucleus accumbens and the striatum were removed for analysis. Following perchloric acid extraction of the tissue, the extracts were placed over alumina columns to collect and concentrate dopa and other catechols. This eluate was then subjected to HPLC analysis using electrochemical detection to quantify the levels of dopa present. Dopamine autoreceptor agonists, under the conditions used above, inhibit dopa accumulation.

The subject of a further experiment is mouse locomotor activity. Put plainly: Reduction of mouse locomotor activity (hypolocomotion; Martin and Bendensky). The format is in vivo, mice (male, CF-1). The settings on record: ip, horizontal activity counts 10 to 20 minutes after dosing. The method, then:
The antipsychotic activity of the compounds of the invention was further established by a determination of the compounds' ability to reduce mouse locomotor activity according to the method of Martin and Bendensky, J. Pharmacol. Exp. Therap. 229:706-711, 1984, in which mice (male, CF-1, Charles River, 20-30 g) were injected with vehicle or various doses of each drug and locomotor activity was measured for 30 minutes using automated infrared activity monitors (Omnitech--8×8 inch open field) located in a darkened room. ED50 's were calculated from the horizontal activity counts collected from 10 to 20 minutes after dosing using a nonlinear regression analysis with inverse prediction.

For a further experiment, the target named is T1, dopamine D2 receptor (Rattus norvegicus, UniProt P61169).
T1 construct: homogenized rat striatal brain tissue; from tissue; host or cells: rat striatum (homogenized brain tissue)
The experiment is described as follows: Affinity for dopamine D2 receptor (3H-quinpirole, rat striatal homogenate). The format is binding. The settings on record: rat striatal brain tissue. The method, then:
Affinity for the dopamine D2 receptor was established by a modification of the standard experimental test procedure of Seemen and Schaus, European Journal of Pharmacology 203: 105-109, 1991, wherein homogenized rat striatal brain tissue is incubated with ^3 H-quinpirole and various concentrations of test compound, filtered and washed and counted in a Betaplate scintillation counter.

SMILES strings stand for the structures. Where two headings read alike, the source gives them in different places.

T1 sequence (P61169 whole entry): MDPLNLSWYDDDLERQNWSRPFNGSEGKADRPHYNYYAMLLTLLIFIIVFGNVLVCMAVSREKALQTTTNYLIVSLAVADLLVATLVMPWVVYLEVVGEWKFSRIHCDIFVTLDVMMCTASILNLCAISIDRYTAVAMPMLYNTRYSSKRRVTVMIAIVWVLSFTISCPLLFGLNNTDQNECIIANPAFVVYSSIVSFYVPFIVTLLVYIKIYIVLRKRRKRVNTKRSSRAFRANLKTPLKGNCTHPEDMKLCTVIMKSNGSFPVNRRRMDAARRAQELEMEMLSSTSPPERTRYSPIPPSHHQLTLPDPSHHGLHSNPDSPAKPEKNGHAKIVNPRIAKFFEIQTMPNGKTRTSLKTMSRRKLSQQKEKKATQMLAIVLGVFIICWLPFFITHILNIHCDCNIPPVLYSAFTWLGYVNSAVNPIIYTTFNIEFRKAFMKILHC

With `O=C1CC2(CCCC2)CC(=O)N1CCCCNCC1COc2ccccc2O1` (single isomer, unassigned; (-)) [(-)-MDL 72832], the “binding at the 5-HT1A receptor site relative to the dextrorotary isomer (times as much)” value in the experiment on 5-HT1A receptor ((-)-isomer vs dextrorotary isomer) was 32 times.

For `c1ccc2c(c1)OCC(CNCCCOc1ccc3cccnc3c1)O2` (centres unmarked) [Example 1, N-[3-(Quinolin-7-yloxy)propyl]-2,3-dihydro-1,4-benzodioxin-2-methanamine], the inhibition at 10 mg/kg was 29% in the experiment on synthesis of dopamine (limbic (L) brain tissue) and 44% with synthesis of dopamine (striatal (S) brain tissue).

As for `c1cnc2cc(OCCCNCC3COc4cc5c(cc4O3)OCO5)ccc2c1` (centres unmarked) [Example 2, N-[3-(Quinolin-7-yloxy)propyl]-2,3-dihydro-6,7-methylenedioxy-1,4-benzodioxin-2-methanamine], the ED50 with mouse locomotor activity was 3 mg/kg. The IC50 against dopamine D2 receptor came to 63 nM. Further, the inhibition at 10 mg/kg in the experiment with synthesis of dopamine (limbic (L) brain tissue) is 60.4%.

In the experiment with mouse locomotor activity, `c1cc(OCCCNCC2COc3cc4c(cc3O2)OCO4)c2cccnc2c1` (centres unmarked) [Example 3, N-[3-(Quinolin-5-yloxy)propyl]-2,3-dihydro-6,7-methylenedioxy-1,4-benzodioxin-2-methanamine] had an ED50 of 12.6 mg/kg. The inhibition at 0.1 µM against dopamine D2 receptor was 25%. In addition, the inhibition at 10 mg/kg in the experiment with synthesis of dopamine (limbic (L) brain tissue) was 42.6%.

Take `COc1ccc2c(c1)OC(CNCCCOc1ccc3cccnc3c1)CO2` (centres unmarked) [Example 4, N-[3-(Quinolin-7-yloxy)propyl]-2,3-dihydro-7-methoxy-1,4-benzodioxin-2-methanamine]: on dopamine D2 receptor, the inhibition at 0.1 µM came out at 55%.

On to `O=C1CC2(CCCC2)CC(=O)N1CCCCNCC1COc2ccccc2O1` (centres unmarked) [MDL 72832, 8-[4-(1,4-benzodioxan-2-ylmethylamino)butyl]-8-azaspiro[4.5]decane-7,9-dione], for which the “ligand for 5-HT1A receptors (in words)” value in the experiment with 5-HT1A receptor is “selective and stereospecific”.
